Results: patent US20170008888A1 (KYORIN PHARMACEUTICAL CO., LTD., priority 2014, published 2017)
Read-outs that look alike come from different tables or passages of the source.

Tests used:
[1] = molecular target: T1, ATAD2A (Homo sapiens, UniProt Q6PL18); experiment: Bromodomain binding assay: ATAD2A
T1 construct: T7 phage strains displaying bromodomains were grown in parallel; made in house; host or cells: E. coli host derived from BL21, infected with T7 phage
Procedure: (§1) T7 phage strains displaying bromodomains were grown in parallel in 24-well blocks in an E. coli host derived from the BL21 strain. E. coli were grown to log-phase and infected with T7 phage from a frozen stock (multiplicity of infection=0.4) and incubated with shaking at 32° C. until lysis (90-150 minutes). The lysates were centrifuged (5,000×g) and filtered (0.2 μm) to remove cell debris. […] The liganded beads were blocked with excess biotin and washed with blocking buffer (SeaBlock (Pierce), 1% BSA, 0.05 Tween 20, 1 mM DTT) to remove unbound ligand and to reduce non-specific phage binding. […] Test compounds (T62 and 46) were prepared as 1000× stocks in 100% DMSO and subsequently diluted 1:10 in monoethylene glycol (MEG) to create stocks at 100× the screening concentration (resulting stock solution is 10% DMSO/90% MEG). The compounds were then diluted directly into the assays such that the final concentration of DMSO and MEG were 0.1% and 0.9%, respectively. All reactions were performed in polystyrene 96-well plates in a final volume of 0.135 ml. […] The bromodomain concentration in the eluates was measured by qPCR. Compounds were assayed for binding activity against a panel of 40 bromodomain-containing proteins.

[2] = molecular target: T2, BRDT (Homo sapiens, UniProt Q58F21); experiment: Bromodomain binding assay: BRDT
T2 construct: read out by qPCR of the phage DNA
Procedure: as §1

[3] = molecular target: T3, TAF1 (Homo sapiens, UniProt P21675); experiment: Bromodomain binding assay: TAF1
T3 construct: made in house; host or cells: E. coli host derived from the BL21 strain (T7 phage lysate)
T3 sequence (P21675 1519-1628 limits assumed): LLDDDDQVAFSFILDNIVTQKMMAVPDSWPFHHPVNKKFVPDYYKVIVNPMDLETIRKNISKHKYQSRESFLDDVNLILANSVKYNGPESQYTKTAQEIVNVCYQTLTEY
Procedure: as §1

[4] = molecular target: T4, BRPF1 (Homo sapiens, UniProt P55201); experiment: Bromodomain binding assay: BRPF1
T4 construct: T7 phage strains displaying bromodomains were grown in parallel; made in house; host or cells: E. coli host derived from BL21, infected with T7 phage
T4 sequence (P55201 628-732 limits assumed, species assumed): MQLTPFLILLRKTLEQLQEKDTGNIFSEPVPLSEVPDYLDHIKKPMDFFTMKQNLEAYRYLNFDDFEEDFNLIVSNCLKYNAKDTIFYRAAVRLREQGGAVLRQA
Procedure: as §1

[5] = molecular target: T5, BAZ2B (Homo sapiens, UniProt Q9UIF8); experiment: Bromodomain binding assay: BAZ2B
T5 construct: T7 phage strains displaying bromodomains were grown in parallel; made in house; host or cells: E. coli host derived from BL21, infected with T7 phage
T5 sequence (Q9UIF8 2060-2164 limits assumed, species assumed): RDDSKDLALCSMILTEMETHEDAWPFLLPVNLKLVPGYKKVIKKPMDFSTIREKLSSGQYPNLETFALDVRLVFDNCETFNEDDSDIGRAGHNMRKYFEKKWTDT
Procedure: as §1

[6] = molecular target: T6, ATAD2B (Homo sapiens, UniProt Q9ULI0); experiment: Bromodomain binding assay: ATAD2B
T6 construct: T7 phage strains displaying bromodomains were grown in parallel; made in house; host or cells: E. coli host derived from BL21, infected with T7 phage
T6 sequence (Q9ULI0 951-1066 limits assumed, species assumed): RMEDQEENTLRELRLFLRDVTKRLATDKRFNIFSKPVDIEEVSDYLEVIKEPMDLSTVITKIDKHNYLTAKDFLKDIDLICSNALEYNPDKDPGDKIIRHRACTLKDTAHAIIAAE
Procedure: as §1

[7] = molecular target: T7, BRPF3 (Homo sapiens, UniProt Q9ULD4); experiment: Bromodomain binding assay: BRPF3
T7 construct: T7 phage strains displaying bromodomains were grown in parallel; made in house; host or cells: E. coli host derived from BL21, infected with T7 phage
T7 sequence (Q9ULD4 589-693 limits assumed, species assumed): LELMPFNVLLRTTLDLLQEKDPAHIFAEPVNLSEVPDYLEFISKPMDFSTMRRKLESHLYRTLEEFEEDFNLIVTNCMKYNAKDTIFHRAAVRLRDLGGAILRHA
Procedure: as §1

[8] = molecular target: T8, BAZ2A (Homo sapiens, UniProt Q9UIF9); experiment: Bromodomain binding assay: BAZ2A
T8 construct: T7 phage strains displaying bromodomains were grown in parallel; made in house; host or cells: E. coli host derived from BL21, infected with T7 phage
T8 sequence (Q9UIF9 1793-1897 limits assumed, species assumed): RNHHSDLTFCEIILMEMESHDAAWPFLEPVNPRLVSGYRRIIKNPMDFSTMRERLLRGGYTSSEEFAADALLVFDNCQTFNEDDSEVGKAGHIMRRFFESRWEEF
Procedure: as §1

[9] = molecular target: T9, BRD7 (Homo sapiens, UniProt Q9NPI1); experiment: Bromodomain binding assay: BRD7
T9 construct: T7 phage strains displaying bromodomains were grown in parallel; made in house; host or cells: E. coli host derived from BL21, infected with T7 phage
T9 sequence (Q9NPI1 131-235 limits assumed, species assumed): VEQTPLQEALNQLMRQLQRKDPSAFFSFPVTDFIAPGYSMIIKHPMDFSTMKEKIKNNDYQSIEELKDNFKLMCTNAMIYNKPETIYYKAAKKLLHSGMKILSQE
Procedure: as §1

[10] = test system: primary human corneal epithelial cells; experiment: Cytokine response in primary human corneal epithelial cells stimulated with IFNγ, IL-1β or IL-17A; type: cell-based; conditions: Corneal epithelial cell, 24 h, 5 μM compound
Procedure: Primary corneal epithelial cells were obtained from Life Technologies (Carlsbad, Calif.) and maintained in Keratinocyte-SFM media supplemented with EGF and bovine pituitary extract (Life Technologies). Cells were seeded at 1e5 cells/ml and incubated at 37° C. in a humidified atmosphere at 5% CO2 overnight to adhere. Cells were supplement-starved overnight in unsupplemented K-SFM media containing 0.5% BSA then treated with compound for 1 h at 37° C. in a humidified atmosphere at 5% CO2. DMSO at a final concentration of 0.1% served as the non-inhibited control. Cells were stimulated with 20 ng/ml of human recombinant IFNγ (R & D Systems, Minneapolis, Minn.), IL-1β (R & D Systems), or IL-17A (eBioscience, San Diego, Calif.) for 24 h. Supernatant was then collected and analyzed for cytokine concentrations using the Bio-Plex Pro Human Cytokine 17-Plex Panel (Bio-Rad Laboratories, Hercules, Calif.) according to the manufacturer's instructions. Magnetic beads were measured on the Bio-Plex MAGPIX multiplex reader instrument using the accompanying xPONENT 4.2 acquisition software (Bio-Rad Laboratories). Data were analyzed via the Bio-Plex Manager software v6.1 (Bio-Rad Laboratories).
Percent inhibition of cytokines in culture supernatant during 5 μM compound treatment of primary corneal epithelial cells. Shown below are data from a representative experiment.

[11] = test system: cynomolgus monkey PBMCs; experiment: Cytokine response by primary cynomolgus monkey PBMCs stimulated with LPS; type: cell-based, cynomolgus monkey (M. fascicularis); conditions: Macaca fascicularis, PBMC, 100 ng/ml LPS 20 h
Procedure: Freshly isolated cynomolgus monkey (M. fascicularis) peripheral blood mononuclear cells (PBMCs) were purchased from SNBL (Everett, Wash.). Cells were seeded at 1.8e6 cells/ml in RPMI 1640 (Life Technologies, Grand Island, N.Y.) containing 10% (v/v) charcoal-dextran treated, heat inactivated FBS (Omega Scientific, Tarzana, Calif.), 0.05 mM 2-Mercaptoethanol (Sigma-Aldrich, St. Louis, Mo.), and 1×Pen/Strep Amphotericin B (Lonza, Allendale, N.J.). Cells were pre-treated with 0.1% DMSO or with a test compound for 1 h at 37° C. in a humidified atmosphere at 5% CO2. Compounds were tested at 10 μM down by ⅕ in a 4-point serial dilution series. Cells were then stimulated with 100 ng/ml LPS from E. coli 0111:B4 (EMD Millipore, Billerica, Mass.) for 20 h at 37° C. in a humidified atmosphere at 5% CO2. Supernatant was collected and analyzed using the Milliplex Map Non-human Primate Cytokine Magnetic Bead Panel Kit (EMD Millipore) as per manufacturer's protocols. Magnetic beads were read on the Bio-Plex MAGPIX multiplex reader instrument using the accompanying xPONENT 4.2 acquisition software (Bio-Rad Laboratories, Hercules, Calif.). Data were analyzed via the Bio-Plex Manager software v6.1 (Bio-Rad Laboratories).

[12] = +20 ng/ml IFNγ, read-out: Percent inhibition of cytokine relative to DMSO controls, G-CSF
[13] = +20 ng/ml IFNγ, read-out: Percent inhibition of cytokine relative to DMSO controls, GM-CSF
[14] = +20 ng/ml IFNγ, read-out: Percent inhibition of cytokine relative to DMSO controls, IL-6
[15] = +20 ng/ml IFNγ, read-out: Percent inhibition of cytokine relative to DMSO controls, MCP-1
[16] = +20 ng/ml IL-1β, read-out: Percent inhibition of cytokine relative to DMSO controls, G-CSF
[17] = +20 ng/ml IL-1β, read-out: Percent inhibition of cytokine relative to DMSO controls, GM-CSF
[18] = +20 ng/ml IL-1β, read-out: Percent inhibition of cytokine relative to DMSO controls, IL-6
[19] = +20 ng/ml IL-1β, read-out: Percent inhibition of cytokine relative to DMSO controls, MCP-1
[20] = +20 ng/ml IL-17A, read-out: Percent inhibition of cytokine relative to DMSO controls, G-CSF
[21] = +20 ng/ml IL-17A, read-out: Percent inhibition of cytokine relative to DMSO controls, GM-CSF
[22] = +20 ng/ml IL-17A, read-out: Percent inhibition of cytokine relative to DMSO controls, IL-6
[23] = +20 ng/ml IL-17A, read-out: Percent inhibition of cytokine relative to DMSO controls, MCP-1
[24] = read-out: EC50 (μM) under LPS stimulation, G-CSF
[25] = read-out: EC50 (μM) under LPS stimulation, GM-CSF
[26] = read-out: EC50 (μM) under LPS stimulation, IFN-γ
[27] = read-out: EC50 (μM) under LPS stimulation, IL-1ra
[28] = read-out: EC50 (μM) under LPS stimulation, IL-1β
[29] = read-out: EC50 (μM) under LPS stimulation, IL-4
[30] = read-out: EC50 (μM) under LPS stimulation, IL-6
[31] = read-out: EC50 (μM) under LPS stimulation, IL-8
[32] = read-out: EC50 (μM) under LPS stimulation, IL-10
[33] = read-out: EC50 (μM) under LPS stimulation, IL-12/IL-23 (p40)
[34] = read-out: EC50 (μM) under LPS stimulation, MCP-1
[35] = read-out: EC50 (μM) under LPS stimulation, MIP-1α
[36] = read-out: EC50 (μM) under LPS stimulation, MIP-1β
[37] = read-out: EC50 (μM) under LPS stimulation, TNF-α
[38] = read-out: EC50 (μM) under LPS stimulation, VEGF
[39] = read-out: EC50 (μM) under LPS stimulation, sCD40L

T1 sequence (Q6PL18 980-1092 limits assumed): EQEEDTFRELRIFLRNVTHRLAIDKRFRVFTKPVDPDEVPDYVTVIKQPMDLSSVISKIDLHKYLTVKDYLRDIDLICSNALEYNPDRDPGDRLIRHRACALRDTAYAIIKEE

Row | SMILES | Kd [1] [nM] | Kd [2] [nM] | Kd [4] [nM] | Kd [5] [nM] | Kd [6] [nM] | Kd [7] [nM] | Kd [8] [nM] | Kd [9] [nM] | inhibition at 5 µM [10, 12] [%] | inhibition at 5 µM [10, 13] [%] | inhibition at 5 µM [10, 14] [%] | inhibition at 5 µM [10, 15] [%] | inhibition at 5 µM [10, 16] [%] | inhibition at 5 µM [10, 17] [%] | inhibition at 5 µM [10, 18] [%] | inhibition at 5 µM [10, 19] [%] | inhibition at 5 µM [10, 20] [%] | inhibition at 5 µM [10, 21] [%] | inhibition at 5 µM [10, 22] [%] | inhibition at 5 µM [10, 23] [%] | further results
1 | CCOc1cc(C(=O)N[C@H]2CC[C@H](O)CC2)ccc1Nc1cc2c(cn1)N(C)C(=O)c1ccccc1N2C [Compound T62] | > 20000 | 397 | > 20000 | > 20000 | > 20000 | > 20000 | > 20000 | > 20000 | 28 | 25.4 | 67.9 | 89.5 | 89.3 | 97.1 | 88.7 | 58 | 86.4 | 89.7 | 89.6 | 36 | Kd ([3]; read-out: Kd (nM) TAF1): 12000 nM; Kd ([3]; read-out: Kd for binding to TAF1): > 20000 nM
2 | CCOc1cc(C(=O)N2CCC(N3CCCC3)CC2)ccc1Nc1cc2c(cn1)N(C)C(=O)c1ccccc1N2C [Compound 46, 3-(2-Ethoxy-4-(4-(pyrrolidin-1-yl)piperidine-1-carbonyl)phenylamino)-5,11-dimethyl-5H-benzo[e]pyrido[3,4-b][1,4]diazepin-10(11H)-one] | > 20000 | 169 | > 20000 | > 20000 | > 20000 | > 20000 | > 20000 | > 20000 | 42.1 | 30.4 | 84.4 | 93.4 | 86.3 | 97 | 92.2 | 52.1 | 90.3 | 92.5 | 94.7 | 42.7 | EC50 [11, 24]: 0.26 µM; EC50 [11, 25]: 0.18 µM; EC50 [11, 26]: 0.28 µM; EC50 [11, 27]: 0.32 µM; EC50 [11, 28]: 0.2 µM; EC50 [11, 29]: 0.48 µM; EC50 [11, 30]: 0.6 µM; EC50 [11, 31]: 0.35 µM; EC50 [11, 32]: 0.31 µM; EC50 [11, 33]: 0.36 µM; EC50 [11, 34]: 0.13 µM; EC50 [11, 35]: 0.78 µM; EC50 [11, 36]: 2.2 µM; EC50 [11, 37]: 0.24 µM; EC50 [11, 38]: 0.45 µM; EC50 [11, 39]: 0.41 µM
3 | CCOc1cc(C(=O)N2CCCN(C)CC2)ccc1Nc1cc2c(cn1)N(C)C(=O)c1ccccc1N2C [Compound 8] | – | – | – | – | – | – | – | – | – | – | – | – | – | – | – | – | – | – | – | – | EC50 [11, 24]: 0.58 µM; EC50 [11, 25]: 0.5 µM; EC50 [11, 26]: 0.55 µM; EC50 [11, 27]: 0.71 µM; EC50 [11, 28]: 0.47 µM; EC50 [11, 29]: 1.29 µM; EC50 [11, 30]: 1.42 µM; EC50 [11, 31]: 0.98 µM; EC50 [11, 32]: 0.52 µM; EC50 [11, 33]: 0.75 µM; EC50 [11, 34]: 0.32 µM; EC50 [11, 35]: 1.63 µM; EC50 [11, 36]: 4.45 µM; EC50 [11, 37]: 0.63 µM; EC50 [11, 38]: 0.9 µM; EC50 [11, 39]: 1.14 µM
